Assay results as given in patent US8138177B2 (dated 2012).
Where a name gives a salt, the structure may show the parent alone.

melting point	Structure (SMILES)
217.1 °C	CC[C@H](C)[C@H](NC(=O)n1c(=O)n(CCN2CCCCC2)c2ccccc21)C(N)=O (as salt: hydrochloride)
190.7 °C	Cc1cccc2c1n(CCS(C)(=O)=O)c(=O)n2C(=O)N[C@H](C(=O)N(C)C)C(C)(C)C
